Columns and labels:
Assay in all cases: relative viability (nuclei count vs DMSO), 5 days (fraction); higher = more cells survive
Sulindac + Pictilisib = compound: CC1=C(CC(=O)O)c2cc(F)ccc2/C1=C\c1ccc([S+](C)[O-])cc1 [Sulindac] + CS(=O)(=O)N1CCN(Cc2cc3nc(-c4cccc5[nH]ncc45)nc(N4CCOCC4)c3s2)CC1 [Pictilisib] (partner 1 µM)
How it was run: (§1)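 Five library-drug doses in √10 steps were combined with a fixed anchor-drug dose, or a single drug was given alone, by pin tool to lung cancer cell lines in 1536-well plates the day after seeding. Nuclei were stained and counted after 5 days. Relative viability is the nuclei count in treated wells over that in vehicle wells, taken as the median of duplicate plates.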

[1] = compound: CN[C@@H]1C[C@H]2O[C@@](C)([C@@H]1OC)n1c3ccccc3c3c4c(c5c6ccccc6n2c5c31)C(=O)NC4 [Staurosporine] + Nc1ncn([C@H]2C[C@H](O)[C@@H](CO)O2)c(=O)n1 [Decitabine] (partner 2 µM)
How it was run: as §1

Sulindac + Bortezomib = compound: CC1=C(CC(=O)O)c2cc(F)ccc2/C1=C\c1ccc([S+](C)[O-])cc1 [Sulindac] + CC(C)C[C@H](NC(=O)[C@H](Cc1ccccc1)NC(=O)c1cnccn1)B(O)O [Bortezomib] (partner 0.002 µM)
How it was run: as §1

[2] = compound: CN[C@@H]1C[C@H]2O[C@@](C)([C@@H]1OC)n1c3ccccc3c3c4c(c5c6ccccc6n2c5c31)C(=O)NC4 [Staurosporine] + N=C(N)NC(=N)NCCc1ccccc1 [Phenformin] (partner 250 µM)
How it was run: as §1

Cell Line	relative viability (Sulindac + Pictilisib; first compound 0.08 µM)	relative viability (Sulindac + Pictilisib; first compound 0.253 µM)	relative viability (Sulindac + Pictilisib; first compound 2.53 µM)	relative viability (Sulindac + Pictilisib; first compound 8 µM)	relative viability ([1]; first compound 0.005 µM)	relative viability ([1]; first compound 0.05 µM)	relative viability ([1]; first compound 0.1581 µM)	relative viability ([1]; first compound 0.5 µM)	relative viability (Sulindac + Bortezomib; first compound 0.08 µM)	relative viability (Sulindac + Bortezomib; first compound 0.253 µM)	relative viability (Sulindac + Bortezomib; first compound 0.8 µM)	relative viability (Sulindac + Bortezomib; first compound 2.53 µM)	relative viability (Sulindac + Bortezomib; first compound 8 µM)	relative viability ([2]; first compound 0.005 µM)	relative viability ([2]; first compound 0.05 µM)	relative viability ([2]; first compound 0.1581 µM)	relative viability ([2]; first compound 0.5 µM)	relative viability (Sulindac + Pictilisib; first compound 0.8 µM)	relative viability ([1]; first compound 0.01581 µM)	relative viability ([2]; first compound 0.01581 µM)
HCC-366	0.149	0.13	0.0966	0.0889	0.348	0.116	0.0285	0.0403	1.9	1.06	0.306	1	1.33	0.708	0.519	0.283	0.0201	–	–	–
HCC-827	0.922	1.17	0.88	1.06	0.34	0.288	0.211	0.189	1.01	1.13	0.93	1.06	1.11	0.43	0.214	0.167	–	0.823	0.274	0.35
HOP-62	1.01	0.864	0.758	0.978	0.219	0.19	0.131	0.126	0.913	1.03	1.02	0.809	0.564	0.426	0.133	0.102	0.1	0.831	0.289	0.232
LC-2-ad	0.63	0.533	0.416	0.445	0.765	0.623	0.167	0.166	1.31	0.992	0.969	0.97	1.12	0.485	0.154	–	0.171	0.34	0.695	0.2
LCLC-97TM1	0.198	0.214	–	0.187	0.257	0.217	0.217	0.223	0.861	0.946	–	0.788	0.806	0.212	0.184	0.158	0.149	0.18	0.198	0.171
LCLC-103H	0.757	0.612	0.642	0.748	0.753	0.34	0.299	0.278	1.24	1.11	0.948	1.05	1.21	0.296	0.16	0.108	0.105	0.545	0.484	0.211
LOU-NH91	0.584	0.514	0.512	0.574	0.788	0.624	0.4	0.314	0.554	0.516	0.601	0.531	0.459	0.467	0.334	0.228	0.168	0.536	0.607	0.302
LU99A	0.33	0.31	0.267	0.344	0.934	0.513	0.341	0.198	1.22	1.09	1.11	0.91	1.19	0.671	0.353	0.24	0.162	0.301	0.672	0.335
LXF-289	0.955	0.796	0.823	0.848	0.445	0.31	0.18	0.206	1.06	1.04	0.991	1.04	0.974	0.325	0.172	0.0511	0.0502	0.769	0.266	0.0737
NCI-H23	0.423	0.525	0.536	0.517	0.309	0.203	0.163	0.161	0.991	1.26	0.58	1.25	1.27	0.763	0.351	0.174	0.161	0.387	0.213	–
NCI-H322M	0.579	0.508	0.545	0.539	0.667	0.529	0.475	0.49	1.22	1.33	1.19	1.3	1.38	–	–	0.289	0.248	0.419	0.49	0.348
NCI-H441	0.627	0.452	0.469	0.603	0.226	0.238	0.129	0.0673	0.594	0.54	0.458	0.422	1.11	0.817	0.246	0.202	0.102	0.373	0.192	0.259
NCI-H460	0.366	0.359	0.381	0.394	0.397	0.175	0.0228	0.0211	–	1.19	–	1.12	1.67	0.301	0.071	0.0104	0.0069	0.219	0.308	0.0818
NCI-H520	0.336	0.3	0.251	0.366	0.527	0.392	0.188	0.161	0.585	0.599	0.51	0.399	0.764	0.758	0.394	0.25	0.166	0.235	0.465	0.233
NCI-H596	0.391	0.378	0.37	0.411	1.01	0.712	0.366	0.504	1.04	1.08	0.831	1	1.21	0.797	0.383	0.249	0.194	0.413	0.885	0.323
NCI-H647	0.49	0.422	0.419	0.735	0.379	0.266	0.0707	0.062	1.02	1.13	0.667	0.936	1.05	0.236	0.0846	0.0492	0.0636	0.435	0.247	0.0676
NCI-H650	0.839	0.889	0.915	0.912	0.343	0.258	0.235	0.188	0.845	0.877	0.862	0.897	1.08	0.285	0.26	0.189	0.164	0.785	0.411	0.257
NCI-H661	0.421	0.412	0.514	0.461	0.555	0.436	0.267	0.186	0.726	0.769	0.688	0.852	0.885	0.277	0.27	0.19	0.131	0.358	0.484	0.235
NCI-H727	0.46	0.252	0.404	0.349	0.859	0.432	0.393	0.316	0.822	0.884	0.665	0.742	0.912	0.404	0.379	0.219	0.146	0.381	0.587	0.319
NCI-H838	0.519	0.466	0.426	0.603	0.368	0.181	0.139	0.141	0.951	0.774	0.512	0.628	0.76	0.208	0.136	0.125	0.0931	0.377	0.271	0.139
NCI-H1355	0.458	0.407	0.39	0.448	0.389	0.281	0.234	0.152	1.27	1.23	1.12	1.24	1.3	0.369	0.255	0.168	0.162	0.36	0.293	0.165
NCI-H1437	0.417	0.504	0.386	0.489	0.639	0.439	0.248	0.15	0.553	0.767	0.293	0.418	0.688	0.247	0.187	0.11	0.118	0.405	0.442	–
NCI-H1650	0.64	0.676	0.555	0.719	0.397	0.341	0.168	0.124	0.31	0.193	0.224	0.204	0.213	0.217	0.109	0.108	0.0714	0.413	0.533	0.147
NCI-H1651	0.751	0.672	0.621	0.599	0.623	0.324	0.146	0.131	1.01	0.953	–	0.958	1.04	0.293	0.16	0.0842	0.0807	0.416	0.509	0.155
NCI-H1666	–	0.442	0.392	0.56	0.685	0.559	0.476	0.454	–	0.724	0.729	0.767	0.937	0.495	0.518	0.262	0.201	0.318	0.522	0.567
NCI-H1734	0.466	0.498	0.48	0.515	0.495	0.215	0.147	0.122	1.01	0.937	0.731	0.914	1.25	0.348	0.153	0.116	0.107	0.413	0.353	0.179
NCI-H1755	0.434	0.419	0.362	0.507	0.757	0.483	0.336	0.133	1.25	1.03	0.85	1.01	1.04	0.384	0.196	0.195	0.161	0.304	0.634	0.24

From the supplement of paper PMC10307832
